Entries after “also recorded” stand apart in the source; their conditions may differ.
Tests used:
Format in all cases: biochemical, bovine
[1] = system: poly(A)-specific 3′-exonuclease activity; experiment: Substrate specificity: Km and Vmax for homopolymer-tailed RNA substrates (Lineweaver-Burke plot); settings: Poly(A) Sepharose fraction; tail-labeled RNA substrates
Experimental: (§1) The test conditions for the in-vitro deadenylation were as follows: 1 mM MgCl2, 2.5% (w/v) poly(vinyl alcohol) (Sigma P-8136, Mw 10,000), 100 mM KCl, 0.15 Unit RNAguard, from 5 to 20 fmol of RNA substrate, from 20 to 48% (v/v) buffer (20 mM HEPES (KOH), 0.2 mM EDTA, 0.5 mM DTT, 25% glycerol, pH 7) and the appropriate protein fraction (Åström, J. et al. (1992), see above). The reaction volume was 15 or 25 μl and the incubations were carried out at 30° C. The reactions were then terminated and RNA was purified as described in Moore, C. L. & Sharpe, P. A. (1985), see above. The RNA was analyzed by electrophoresis in 10% polyacrylamide (19:1 acrylamide/bisacrylamide)—7 M urea gels, followed by autoradiography of the resulting gels.
(§2) The deadenylation activity was quantified as follows: L3(A30) RNA substrate, labeled with [α^32P]ATP, was incubated in an in-vitro deadenylation reaction. The reaction products were analyzed by 1D TLC using mobile solvent III (0.75 M K2HPO4, pH 3.5 (H3PO4)). The resulting PEI-Cellulose F plate was dried and scanned in a 400 S Phosphorimager (Molecular Dynamics). The fractions containing released [α^32P]AMP were determined. The quantity, in mol, of released AMP was calculated on the basis of the known specific activity of [α^32P]AMP in the RNA substrate. One unit of deadenylation activity corresponds to the release of 1 pmol of AMP/minute.
The RNA substrate specificity of the activity was investigated in two experiments. In a first experiment, the RNA substrates L3(A30), ML45(U30), ML40(C32) and ML43(G30), whose homopolymeric tails had been radioactively labeled, were incubated in an in-vitro deadenylation test (see above). The release of radioactive mononucleotides was measured in the 1D TLC test (see above). The measurement results were used to calculate the Km and Vmax values for each RNA substrate using the Lineweaver-Burke plot (see Table II). In a second experiment, the substrate specificity was measured by incubating RNA substrates containing internal poly(A) segments, followed by plasmid-encoded RNA sequences of increasing length, with Poly(A) Sepharose fractions in an in-vitro deadenylation test. […] It follows from this that RNA tails composed of adenosine residues are the preferred substrate and that only 3′ end-located poly(A) tails are effectively degraded.

[2] = system: poly(A)-specific 3′-exonuclease activity; experiment: Conditions for the in-vitro deadenylation: ions and spermidine (1D TLC); settings: for decrease of activity as compared with the activity in the presence of Mg2+: 1 mM divalent ion, L3(A30) RNA; for decrease of activity as compared with the activity in the presence of Mg2+ / influence on deadenylation activity: Poly(A) Sepharose fraction; for influence on deadenylation activity: tail-labeled L3(A30) RNA
Experimental: as §1, §2
The conditions for measuring poly(A) deadenylation activity in accordance with the above-described deadenylation test were determined using Poly(A) Sepharose fractions as the enzyme source and poly(A) tail-labeled L3(A30) RNA as the substrate. The activity was measured in terms of the release of the mononucleotides in the 1D TLC test (see above). The requirement of monovalent (potassium and sodium) and divalent (magnesium, manganese, zinc and calcium) ions for this was investigated.

[3] = system: poly(A)-specific 3′-exonuclease activity; experiment: Kinetics of the nuclease activity (time course, added poly(A)); settings: 20 minutes, 0.5 μl Poly(A) Sepharose fraction, L3(A30) RNA
Experimental: FIGS. 5A-C show the ongoing degradation of poly(A). The Poly(A) Sepharose fraction was incubated, under in-vitro deadenylation conditions, with X fmol of the L3(A30) RNA substrate which had been labeled with [α-^32P]UTP during in-vitro transcription. The reaction products were fractionated in a 10% polyacrylamide:bisacrylamide 19:1-7 M urea gel. S and P indicate the migration sites of the RNA substrate (S) and the product (P). […] The indicated quantities of poly(A) in ng were added to the reactions.
as §1, with “The reaction volume was 15 or 25 μl and the incubations were carried out at 30° C. The reactions were then terminated and RNA was purified as described in Moore, C. L. & Sharpe, P. A. (1985), see above.” left out
In order to determine whether the nuclease activity degrades RNA substrates in a progressive or distributive manner, the kinetics was first of all determined in an in-vitro deadenylation reaction in the presence of 0.5 μl of a Poly(A) Sepharose fraction and x fmol of L3(A30) RNA substrate which had been labeled overall. […]

Row | Molecule | Km [1] [µM] | decrease of activity as compared with the activity in the presence of Mg2+ [2] [%] | influence on deadenylation activity [2] | also measured
1 | poly(C) | 0.01 | – | – | –
2 | [Mn+2] [Mn^2+] | – | 17 | also active in the presence of Mn^2+ | –
3 | [Zn+2] [Zn^2+] | – | 2 | – | –
4 | poly(A) | 0.01 | – | – | effect of added poly(A) on the deadenylation reaction [3]: inhibits the reaction
5 | [K+] [potassium ions] | – | – | activity is higher in the presence of potassium ions than in the presence of sodium ions | –
6 | poly(G) | 0.007 | – | – | –
7 | NCCCCNCCCN [spermidine] | – | – | no influence on the activity; also recorded: if anything, it is inhibited both at low and at high salt concentrations | –
8 | poly(U) | 0.02 | – | – | –
9 | [Mg+2] [magnesium ions] | – | – | – | optimum concentration of ion for deadenylation activity [2]: 1 mM
10 | [Ca+2] [Ca^2+] | – | 0.7 | – | –

Reference: patent publication US6451307B1, “3′-exonuclease, production and use thereof” (Aventis Research & Technologies GmbH & Co. KG, priority 1998, dated 2002)
